Data: patent US20250144562A1, “ELECTROCHEMICAL CO2 CAPTURE WITH AIR STABLE REDOX SPECIES” (President and Fellows of Harvard College, priority 2022, published 2025)

Tests used:
[1] = Stability in air of reduced BTMAPAQ isomers (with and without captured CO2) tracked by 1H NMR
[2] = Cyclic voltammetry of the water-soluble redox molecules; conditions: for redox peak separation: 0.1 M in 1 M TBABr
Description: Cyclic voltammetry was used to examine the electrochemical behaviors of the water-soluble redox molecules in the presence/absence of CO2.

[3] = Stability in air of 2,7-BTMAPFL-OH stirred in air for 12 hours, 1H NMR; format: physicochemical; conditions: vigorously stirred in air 12 hours
Experimental: We vigorously stirred the solution in air for 12 hours, then checked its ^1H NMR spectra before and after being stirred in air.
The 2,7-BTMAPFL molecule undergoes PCET process and forms 2,7-BTMAPFL-OH after the electrochemical reduction; meanwhile, the electrolyte pH swings from near neutral (˜7) to ˜14. Therefore, we also investigated the air stability of 2,7-BTMAPFL-OH at pH 14 by vigorously stirring the pH 14 solution in air for 12 hours.

[4] = pH >6; cited from earlier work
[5] = Reduction potentials stated for choice of chemical reductant; conditions: pH=7
[6] = with captured CO2, D2O, 1 M KCl
[7] = with captured CO2, D2O, 1 M KCl, air exposure
[8] = with captured CO2, D2O, 1 M KCl, air exposure, day-4
[9] = with captured CO2, D2O, 1 M KCl, air exposure, day-6
[10] = without captured CO2, D2O, 1 M KCl
[11] = without captured CO2, D2O, 1 M KCl, air exposure
[12] = without captured CO2, D2O, 1 M KCl, air exposure, day-3

In the case of C[N+](C)(C)CCCOc1ccc(OCCC[N+](C)(C)C)c2c1C(=O)c1ccccc1C2=O [1,4-BTMAPAQ], the “oxidation by air of the reduced species” value [1, 6] is reported as “relatively slow”, the “day on which peaks of oxidized state start to appear” value (“day on which peaks … to appear” for short) [1, 7] is reported as 2 days and the “reduced form with captured CO2 converted to the oxidized form” value (“reduced form with captured CO2 converted” below) ([1]; with captured CO2, D2O, 1 M KCl, air exposure, day-3) is reported as 51.5%. The “reduced form with captured CO2 converted” value [1, 8] was 73.0%, the “reduced form with captured CO2 converted” value [1, 9] was 98.0% and the “oxidation by air of the reduced species” value [1, 10] was “very slow”. The “day on which peaks … to appear” value [1, 11] was 3 days, the “reduced form converted to the oxidized form” value (from here on “reduced form converted”) [1, 12] was 11.3% and the “reduced form converted” value ([1]; without captured CO2, D2O, 1 M KCl, air exposure, day-4) was 27.6%. For the same compound, the “reduced form converted” value ([1]; without captured CO2, D2O, 1 M KCl, air exposure, day-6) was 50%.

With C[N+](C)(C)CCCOc1cccc2c1C(=O)c1cccc(OCCC[N+](C)(C)C)c1C2=O [1,5-BTMAPAQ] the “oxidation by air of the reduced species” value [1, 6] was “very slow”, the “day on which peaks … to appear” value [1, 7] was 4 days and the “reduced form with captured CO2 converted” value [1, 8] was 15.0%. The “reduced form with captured CO2 converted” value [1, 9] was 22.3%, the “oxidation by air of the reduced species” value [1, 10] was “very slow” and the “air stability (1H NMR spectra unchanged)” value [1, 11] was “good air stability over the first day”. The “day on which peaks … to appear” value [1, 11] was 2 days, the “reduced form converted” value [1, 12] was 37.0% and the “reduced form converted” value ([1]; without captured CO2, D2O, 1 M KCl, air exposure, day-5) was 47.4%. For the same compound, the “reduced form converted” value ([1]; without captured CO2, D2O, 1 M KCl, loosely capped, air exposure, day-2) was 23.6%.

For C[N+](C)(C)CCCOc1cccc2c1C(=O)c1c(OCCC[N+](C)(C)C)cccc1C2=O [1,8-BTMAPAQ], the “time the reduced species with captured CO2 can withstand the presence of air” value ([1]; with captured CO2, 1 M TBABr) was 5 days, the “oxidation by air of the reduced species” value ([1]; with captured CO2, D2O, 1 M TBABr) was “extremely slow” and the “day on which peaks of oxidized state appear” value ([1]; with captured CO2, D2O, 1 M TBABr, air exposure day 1 to day 9) was 9 days. The redox peak separation ([2]; absence of CO2, scan rate 100 mV/s) was 100 mV and the redox peak separation ([2]; in the presence of CO2, scan rate 100 mV/s) was 200 mV.

For C[N+](C)(C)CCCOc1ccc2c(c1)C(O)c1cc(OCCC[N+](C)(C)C)ccc1-2 [2,7-BTMAPFL-OH], the “air stability (1H NMR spectra unchanged)” value ([3]; D2O, 1 M KCl, pH 7) was “excellent air stability over 12 hours” and the “air stability (1H NMR spectra almost unchanged)” value ([3]; pH 14) was “excellent air stability over 12 hours”.

With C[N+](C)(C)CCCOc1ccc2c(c1)C(=O)c1cc(OCCC[N+](C)(C)C)ccc1-2 [2,7-BTMAPFL] the “cyclic voltammetry peaks observed” value ([2]; 0.1 M in 1 M KCl at pH 7, scan rate 100 mV/s) was “a reduction peak but no oxidation peak”, the “potential of the pair of redox peaks” value ([2]; 0.1 M in 1 M KOH at pH 14, scan rate 100 mV/s) was −0.67 V vs. Ag/AgCl and the electrochemical reversibility ([2]; pH 7) was “poor reversibility”. For the same compound, the electrochemical reversibility ([2]; pH 14) was “good reversibility”.

In the case of O=NO [NO2, nitrite], the air-stability [4] is given as “superior air-stability”.

With O=S([O-])S(=O)[O-].[Na+].[Na+] [Na2S2O4, sodium dithionite, reference compound] the reduction potential [5] was −0.66 V vs. SHE.

In the case of “bis-(trimethylammonio)propyl anthraquinone [BTMAPAQ]”, the reduction potential [5] is reported as −0.41 V vs. SHE.
